The values that follow are results of earlier work, collected in EP0893486B1, “Acrylic compositions for consolidation of soils and concrete in general” (Draco Italiana S.p.A., priority 1997, dated 1999).

The conditions of this data set: classification of the single monomer.

As for `C=C(C)C(=O)OCCO` [2-hydroxyethylmethacrylate], the classified as entry is “irritants”.

With `C=CC(=O)OCC(CC)(COCC(CC)(COC(=O)C=C)COC(=O)C=C)COC(=O)C=C` [Ditrimetbylolpropanetetraacrylate], the classified as result is given as “irritants”. In the case of `C=C(C)C(=O)OCC(CC)(COC(=O)C(=C)C)COC(=O)C(=C)C` [trimethylolpropanetrimethacrylate], the classified as entry was “irritants”. On to polyethyleneglycol-400-diacrylate, for which the classified as entry is “irritants”. In the case of polyethyleneglycol-600-dimethacrylate, the classified as entry is on record as “irritants”. For polyethyleneglycolmonoacrylate, the classified as entry is “irritants”. As to “trimethylolpropanetriacrylate-ethoxylate”, the classified as result is given as “irritants”.
